# Results published in patent US5716934A, “Eck receptor ligands” (Amgen Inc., priority 1995, dated 1998).
# Columns and labels:
# [1] = system: eck receptor on CHO 19.32 cells; test: Chemical crosslinking of 125I-EBP to CHO 19.32 cells; type: binding, human
# Protocol: (§1) CHO-cell derived EBP was radiolabelled with ^125 I as described below for use in crosslinking and binding studies. Five or 10 μg of EBP in 0.1M sodium phosphate (NAPO4, pH 8.0) was added to 5 mCi of dried ^125 I-Bolton-Hunter reagent (NEN, Boston, Mass.) in a final volume of 50 μl or 100 μl, and the tube was incubated at 4° C. for 1 h. The reaction was terminated by addition of 0.3 ml of 0.2M glycine in 0.1M NaPO4, followed by incubation at 4° C. for 5 min. Labeled protein was separated from unincorporated reagent by gel filtration chromatography on a 10 ml PD10 column containing Sephadex G-25M (Pharmacia) equilibrated with 0.1M NaPO4 --0.25% gelatin. Specific activity of the ^125 I-EBP ranged from 4 to 19 cpm/pg.
# (§2) Crosslinking of EBP to either LIM 2405 (a cell line naturally expressing the eck receptor) or CHO 19.32 (Chinese hamster ovary cells transfected with a clone of the full length eck receptor) was carried out as follows. CHO cells were grown in suspension to a density of approximately 5×10^5 cells/ml in media. LIM2405 cells were grown in RPMI 1640 media containing 5% FCS, 1 μg/ml insulin, 1 μg/ml hydrocortisone, 10 μM thioglycerol and 2 mM L-glutamine to approximately 90% confluency in T-175 flasks and removed by scraping for use in the crosslinking studies. Cells were spun down and resuspended in PBS to give a single cell suspension. For each crosslinking reaction, 2×10^6 cells were mixed with approximately 20 ng of ^125 I-EBP in a total volume of 1 ml. This mixture was incubated at 4° C. for 1 h to allow binding of EBP to cell surface receptors before the addition of 20 μl of 10 mM disuccinimidyl suberate (DSS) as a crosslinking agent. Cells were then washed three times in binding buffer, collected by centrifugation, and the amount of radioactivity incorporated into the cell pellets was counted to assess the degree of crosslinking. The cells were then lysed by treatment with 100 ul PBS, 1 mM EDTA, 0.5% NP-40, 1 mM phenylmethylsulfonyl fluoride (PMSF, Sigma, St. Louis, Mo.) for 10 min at 4° C. […]
# [2] = system: eck receptor; test: as above; type: binding, human; conditions: untransfected cells (CHOd-)
# Protocol: as §1, §2
# [3] = system: eck receptor (p130^eck); test: p130eck autophosphorylation in LIM 2405 cells; type: cell-based, human; conditions: for eck receptor phosphorylation: intact LIM 2405 cells, 10-15 min at 37° C.
# Protocol: The LIM 2405 colorectal carcinoma cell line (Whitehead et al. Immunol. and Cell Biol. 70, 227 (1992)) was maintained in RPMI 1640 containing 5% FBS, 1 μg/ml insulin, 10 μg/ml hydrocortisone and 10 μM α-thioglycerol, and subpassaged by trypsination and dilution (1:5) into fresh media. Prior to assay 2.5×10^5 LIM 2405 cells were seeded into 6-well dishes (Falcon #3046) and incubated for 24 hr at 37° C. The media was discarded and replaced with serum-free RPMI 1640 containing 0.03% BSA, 1 μg/ml insulin, 10 μg/ml hydrocortisone and 10 μM α-thioglycerol, then incubated for 12-18 hr. In some experiments the cell cultures were labelled with ^32 P-orthophosphate (2 mCi/ml) in phosphate-free RPMI 1640 (Flow) for 2-3 hr prior to treatment. Growth factor stock solutions were prediluted at varying concentrations into 2.0 ml of serum-free media, then warmed to 37° C. Cell cultures were removed from the incubator, and the supernatant media discarded. Treatments were promptly added and the cell cultures incubated at 37° C. for 10-15 min. The cultures were then removed from the incubator, placed on ice, and the culture supernatant aspirated.
# The treated cell cultures were chilled to 0° C. then washed once with ice-cold PBS (GIBCO). The residual PBS was aspirated and the cells were lysed by the addition of 1.0 ml of ice-cold RIPA buffer (10 mM sodium phosphate, pH 7.4, 150 mM sodium chloride, 0.1% sodium dodecyl sulfate, 1% NP-40, 1% deoxycholate, 1% Trasylol, 2 mM EDTA, 50 mM sodium fluoride and 100 mM sodium orthovanadate). After a 10 min incubation the lysates were transferred to 1.5 ml tubes and clarified by centrifugation for 30 min at 10,000×g. The clarified lysate supernatants were transferred to new tubes and immunoprecipitated with 1.0 μg/ml of affinity purified rabbit anti-Eck C-terminal domain antibody for 2 hr at 0° C. Immune complexes were adsorbed to Protein-G Sepharose beads (Pharmacia) at 4° C. for 30 min, washed twice with ice-cold RIPA buffer, once with 0.1M Tris-HCl, pH 8.0, containing 0.5M LiCl, and once with RIPA. The resulting immunoprecipitates were solubilized with SDS-PAGE sample buffer and stored for further analysis.
# The anti-eck immunoprecipitates from treated and untreated LIM 2405 cell lysates were resolved on 7.5% polyacrylamide gels as previously described (Boyle et al. Meth. Enzymol. 201, 110 (1991)). […] Immune complexes were detected by chemiluminescent exposure (ECL, Amersham) to Kodak X-OMAT X-ray film at room temperature for 0.5-5 min.
# Eck receptor immunoprecipitates from ^32 P-labelled LIM 2405 cells were resolved by SDS-PAGE, and the gel dried directly without fixation. After exposure to X-ray film the labelled eck receptor band was isolated and phosphoamino acid content determined as described (Boyle et al. Meth. Enzymol. 201, 110 (1991))
substance,measurement,setting,value
CHO-EBP: recombinant EBP purified from supernatants of CHO cells transfected with the EBP gene; mainly EBP^1-150 and EBP^1-159,competition for binding and crosslinking of 125I-rEBP,[1]; 50-fold molar excess,able to compete
same,crosslinking to CHO 19.32 cells,"[1]; CHO cells transfected with eck, DSS crosslinker",could be crosslinked
same,crosslinking to untransfected CHO cells,[2],but not to the untransfected cells
same,total cellular eck protein levels,[3]; LIM 2405 cells after exposure to soluble EBP,modest dose-dependent decrease
same,eck receptor phosphorylation,[3]; listed as CHO cell-derived rEBP,stimulated eck receptor phosphorylation
same,eck receptor phosphorylation,[3]; listed as CHO-derived rEBP,active in inducing phosphorylation
